Each structure is given as a SMILES string.

This assay addresses T1, ADP-glucose synthase (Ags; ags1 ags2) (Acetivibrio thermocellus, UniProt A3DK82).
T1 construct: gene glgC; both subunits co-expressed untagged from pTrc99a (pTK30) in E. coli BL21; cell extract
T1 sequence (A3DK82 1-426): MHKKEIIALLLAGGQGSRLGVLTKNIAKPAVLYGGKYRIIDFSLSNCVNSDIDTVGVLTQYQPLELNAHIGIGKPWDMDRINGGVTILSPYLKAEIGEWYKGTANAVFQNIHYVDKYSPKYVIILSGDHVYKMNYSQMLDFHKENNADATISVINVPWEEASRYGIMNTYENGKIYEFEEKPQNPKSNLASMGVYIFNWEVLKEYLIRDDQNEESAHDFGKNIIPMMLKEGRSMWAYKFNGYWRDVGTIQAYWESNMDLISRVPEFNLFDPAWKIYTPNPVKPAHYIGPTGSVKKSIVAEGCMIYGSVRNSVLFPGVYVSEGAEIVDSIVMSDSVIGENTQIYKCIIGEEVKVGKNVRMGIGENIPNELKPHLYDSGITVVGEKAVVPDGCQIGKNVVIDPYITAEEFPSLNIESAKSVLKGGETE
T1 sequence (A3DK83 1-373 partner): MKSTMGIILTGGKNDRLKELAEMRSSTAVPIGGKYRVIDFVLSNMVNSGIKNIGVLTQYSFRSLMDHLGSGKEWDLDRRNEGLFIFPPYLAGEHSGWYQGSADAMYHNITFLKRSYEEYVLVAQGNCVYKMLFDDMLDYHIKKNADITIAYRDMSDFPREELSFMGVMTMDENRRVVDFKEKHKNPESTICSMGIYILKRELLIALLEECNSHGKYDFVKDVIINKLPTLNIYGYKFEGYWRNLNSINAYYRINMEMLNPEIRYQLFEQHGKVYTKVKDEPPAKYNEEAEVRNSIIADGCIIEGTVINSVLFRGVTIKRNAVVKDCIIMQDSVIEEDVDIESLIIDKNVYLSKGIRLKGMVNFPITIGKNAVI
Description: coupled NADP+ assay, pyrophosphorolysis direction. Format: biochemical. Particulars: 1 mM ADP-glucose, 1 mM PPi, 4 mM MgCl2, 2 mM fructose-1,6-bisphosphate, pH 7.5, 55°C.

As to `Nc1ncnc2c1ncn2[C@@H]1O[C@H](COP(=O)(O)OP(=O)(O)O[C@H]2O[C@H](CO)[C@@H](O)[C@H](O)[C@H]2O)[C@@H](O)[C@H]1O` [ADP-glucose], the “coupled NADP+ assay, pyrophosphorolysis direction” value is “the activity was found to be ADP-glucose dependent”.

The record behind these values is article PMC8863071, “Functional Analysis of H^+-Pumping Membrane-Bound Pyrophosphatase, ADP-Glucose Synthase, and Pyruvate Phosphate Dikinase as Pyrophosphate Sources in Clostridium thermocellum” (Applied and Environmental Microbiology, 2022).
